In BindingDB's records for doi:10.1016/j.bmcl.2010.04.142 (Glaxosmithkline, 2010):

Tests used:
[1] = Antagonist activity at CCR2 in human THP1 cells assessed as inhibition of CCL2-induced chemotaxis in presence of 1% fetal bovine serum
[2] = Antagonist activity at CCR2 in human THP1 cells assessed as inhibition of CCL2-induced chemotaxis in presence of 1% human serum

| Ki [1] [nM] | Ki [2] [nM] | Compound |
| --- | --- | --- |
| 63.1 | 12600 | O=C(O)c1ccccc1Oc1c(F)cc(C(F)(F)F)cc1NS(=O)(=O)c1ccc(Cl)cc1 |
| 398 | 398 | O=C(O)c1ccccc1Oc1ccccc1NS(=O)(=O)c1ccc(Cl)cc1 |
| 158 | 10000 | O=C(O)c1c(F)cccc1Oc1ccc(C(F)(F)F)cc1NS(=O)(=O)c1ccc(Cl)cc1 |
